Results from publication PMC11794875, “Molecular basis for azetidine-2-carboxylic acid biosynthesis” (Nature Communications, 2025).
Like-named read-outs stand apart in the source and are kept apart here.

Columns and labels:
AzeJ [1] = molecular target: T1, AzeJ (Pseudomonas aeruginosa, UniProt Q9HYR0); assay: X-ray crystal structure, […] Å; assay type: binding; conditions: co-crystallised with 2 mM SAM, pH 7.0 or 7.2, formed in crystal, active site
T1 construct: gene PA3335; N-terminal His6-SUMO fusion in pETDuet, codon-optimised, SUMO tag cleaved by Ulp1; E. coli BL21 Gold (DE3); homodimer
T1 sequence (Q9HYR0 entry or part of it): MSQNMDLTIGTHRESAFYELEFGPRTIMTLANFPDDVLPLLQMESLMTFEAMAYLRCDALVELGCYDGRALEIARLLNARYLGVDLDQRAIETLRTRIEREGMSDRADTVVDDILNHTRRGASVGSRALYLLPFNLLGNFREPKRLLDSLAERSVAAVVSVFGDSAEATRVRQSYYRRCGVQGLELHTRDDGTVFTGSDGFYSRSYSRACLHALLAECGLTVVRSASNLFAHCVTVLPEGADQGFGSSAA

AzeJ [2] = molecular target: T1, AzeJ; assay type: binding; conditions: 100 mM Tris-HCl, pH 8.0, 10 µM protein
VioH = molecular target: T2, VioH (Archangium violaceum, UniProt Z9G018KSM0); assay: in vitro AZE synthase activity assay, HPLC; assay type: biochemical; conditions: without VioG partner
T2 construct: N-terminal His6-SUMO fusion in pETDuet, codon-optimised, SUMO tag cleaved by Ulp1; E. coli BL21 Gold (DE3); monomer
T2 sequence (Z9G018KSM0 1-236): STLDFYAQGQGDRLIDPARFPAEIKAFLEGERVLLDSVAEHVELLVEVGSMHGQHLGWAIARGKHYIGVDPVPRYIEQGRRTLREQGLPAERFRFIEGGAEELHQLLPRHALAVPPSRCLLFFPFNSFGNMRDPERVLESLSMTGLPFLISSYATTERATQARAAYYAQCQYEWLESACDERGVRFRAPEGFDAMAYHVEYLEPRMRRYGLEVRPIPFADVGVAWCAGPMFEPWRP

O=C(O)[C@@H]1CCN1 [AZE, azetidine-2-carboxylic acid]
X-ray crystal structure, 1.95 Å (AzeJ [1]; with MTA): Fo-Fc electron density maps reveal that MTA and AZE are bound to the active site

C[S+](CC[C@H](N)C(=O)O)C[C@H]1O[C@@H](n2cnc3c(N)ncnc32)[C@H](O)[C@@H]1O (some centres unmarked) [SAM, S-adenosylmethionine]
dTm (AzeJ [2]; 0–1 mM SAM): In the presence of SAM or SAH, the melting temperature of AzeJ increased
in vitro AZE synthase activity assay, HPLC (VioH): in vitro observation that VioH alone had minimal catalytic activity (Fig. S8)

Nc1ncnc2c1ncn2[C@@H]1O[C@H](CSCC[C@H](N)C(=O)O)[C@@H](O)[C@H]1O [SAH, S-adenosyl-L-homocysteine]
dTm (AzeJ [2]; 0–1 mM SAH): In the presence of SAM or SAH, the melting temperature of AzeJ increased

CSC[C@H]1O[C@@H](n2cnc3c(N)ncnc32)[C@H](O)[C@@H]1O [MTA, 5′-methylthioadenosine]
X-ray crystal structure, 1.95 Å (AzeJ [1]; with AZE): Fo-Fc electron density maps reveal that MTA and AZE are bound to the active site
